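Briefly, cells in 96-well plates were exposed to five compound concentrations for 48 h, and endpoints were estimated by linear interpolation. TGI is the concentration that stops growth completely.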
Assays:
Assay in all cases: inhibition of tumour cell growth, NCI panel, 48 h
786-0 renal = tested on: 786-0 renal
A498 renal = tested on: A498 renal
A549 NSCLC = tested on: A549 NSCLC
ACHN renal = tested on: ACHN renal
BT-549 breast = tested on: BT-549 breast
CAKI-1 renal = tested on: CAKI-1 renal
CCRF-CEM leukemia = tested on: CCRF-CEM leukemia
COLO 205 colon = tested on: COLO 205 colon
DU-145 prostate = tested on: DU-145 prostate
EKVX NSCLC = tested on: EKVX NSCLC
HCC-2998 colon = tested on: HCC-2998 colon
HCT-116 colon = tested on: HCT-116 colon
HCT-15 colon = tested on: HCT-15 colon
HOP-62 NSCLC = tested on: HOP-62 NSCLC
HOP-92 NSCLC = tested on: HOP-92 NSCLC
HT29 colon = tested on: HT29 colon
IGROV1 ovarian = tested on: IGROV1 ovarian
K-562 leukemia = tested on: K-562 leukemia
KM12 colon = tested on: KM12 colon
LOX IMVI melanoma = tested on: LOX IMVI melanoma
M14 melanoma = tested on: M14 melanoma
MCF7 breast = tested on: MCF7 breast
MDA-MB-435 = tested on: MDA-MB-435
MDA-N = tested on: MDA-N
MOLT-4 leukemia = tested on: MOLT-4 leukemia
NCI-H226 lung = tested on: NCI-H226 lung
NCI-H23 lung = tested on: NCI-H23 lung
NCI-H460 lung = tested on: NCI-H460 lung
NCI/ADR-RES ovarian = tested on: NCI/ADR-RES ovarian
OVCAR-3 ovarian = tested on: OVCAR-3 ovarian
OVCAR-5 ovarian = tested on: OVCAR-5 ovarian
OVCAR-8 ovarian = tested on: OVCAR-8 ovarian
PC-3 prostate = tested on: PC-3 prostate
RPMI-8226 leukemia = tested on: RPMI-8226 leukemia
SF-295 CNS = tested on: SF-295 CNS
SF-539 CNS = tested on: SF-539 CNS
SK-MEL-2 melanoma = tested on: SK-MEL-2 melanoma
SK-MEL-28 melanoma = tested on: SK-MEL-28 melanoma
SK-MEL-5 melanoma = tested on: SK-MEL-5 melanoma
SK-OV-3 ovarian = tested on: SK-OV-3 ovarian
SN12C renal = tested on: SN12C renal
SNB-19 CNS = tested on: SNB-19 CNS
SNB-75 CNS = tested on: SNB-75 CNS
SR leukemia = tested on: SR leukemia
SW-620 colon = tested on: SW-620 colon
T-47D breast = tested on: T-47D breast
U251 CNS = tested on: U251 CNS
UACC-257 melanoma = tested on: UACC-257 melanoma
UACC-62 melanoma = tested on: UACC-62 melanoma
UO-31 renal = tested on: UO-31 renal
MALME-3M melanoma = tested on: MALME-3M melanoma
MDA-MB-231 breast = tested on: MDA-MB-231 breast
NCI-H522 lung = tested on: NCI-H522 lung
OVCAR-4 ovarian = tested on: OVCAR-4 ovarian
RXF 393 renal = tested on: RXF 393 renal
TK-10 renal = tested on: TK-10 renal

Work on CCOC(=O)c1c(O)cc(=O)[nH]c1N1CCOCC1 yielded a TGI (786-0 renal) of over 100 µM, a TGI (A498 renal) of over 100 µM and a TGI (A549 NSCLC) of over 100 µM. For the same compound, the TGI (ACHN renal) was over 100 µM, the TGI (BT-549 breast) was over 100 µM and the TGI (CAKI-1 renal) was over 100 µM. For the same compound, the TGI (CCRF-CEM leukemia) was over 100 µM, the TGI (COLO 205 colon) was over 100 µM and the TGI (DU-145 prostate) was over 100 µM. For the same compound, the TGI (EKVX NSCLC) was over 100 µM, the TGI (HCC-2998 colon) was over 100 µM and the TGI (HCT-116 colon) was over 100 µM. It also gave a TGI (HCT-15 colon) of over 100 µM, a TGI (HOP-62 NSCLC) of over 100 µM and a TGI (HOP-92 NSCLC) of over 100 µM. The TGI (HT29 colon) was over 100 µM, the TGI (IGROV1 ovarian) was over 100 µM and the TGI (K-562 leukemia) was over 100 µM. It also gave a TGI (KM12 colon) of over 100 µM, a TGI (LOX IMVI melanoma) of over 100 µM and a TGI (M14 melanoma) of over 100 µM. For the same compound, the TGI (MCF7 breast) was over 100 µM, the TGI (MDA-MB-435) was over 100 µM and the TGI (MDA-N) was over 100 µM. It also gave a TGI (MOLT-4 leukemia) of over 100 µM, a TGI (NCI-H226 lung) of over 100 µM and a TGI (NCI-H23 lung) of over 100 µM. It also gave a TGI (NCI-H460 lung) of over 100 µM, a TGI (NCI/ADR-RES ovarian) of over 100 µM and a TGI (OVCAR-3 ovarian) of over 100 µM. It also gave a TGI (OVCAR-5 ovarian) of over 100 µM, a TGI (OVCAR-8 ovarian) of over 100 µM and a TGI (PC-3 prostate) of over 100 µM. For the same compound, the TGI (RPMI-8226 leukemia) was over 100 µM, the TGI (SF-295 CNS) was over 100 µM and the TGI (SF-539 CNS) was over 100 µM. For the same compound, the TGI (SK-MEL-2 melanoma) was over 100 µM, the TGI (SK-MEL-28 melanoma) was over 100 µM and the TGI (SK-MEL-5 melanoma) was over 100 µM. For the same compound, the TGI (SK-OV-3 ovarian) was over 100 µM, the TGI (SN12C renal) was over 100 µM and the TGI (SNB-19 CNS) was over 100 µM. For the same compound, the TGI (SNB-75 CNS) was over 100 µM, the TGI (SR leukemia) was over 100 µM and the TGI (SW-620 colon) was over 100 µM. The TGI (T-47D breast) was over 100 µM, the TGI (U251 CNS) was over 100 µM and the TGI (UACC-257 melanoma) was over 100 µM. The TGI (UACC-62 melanoma) was over 100 µM and the TGI (UO-31 renal) was over 100 µM.
Work on CCN(C(=O)N[C@@H](Cc1ccccc1)C(=O)N[C@@H](CC(C)C)C(=O)NC)c1ccccc1 yielded a TGI (786-0 renal) of over 100 µM, a TGI (A549 NSCLC) of over 100 µM and a TGI (ACHN renal) of over 100 µM. The TGI (BT-549 breast) was over 100 µM, the TGI (CAKI-1 renal) was over 100 µM and the TGI (CCRF-CEM leukemia) was over 100 µM. For the same compound, the TGI (COLO 205 colon) was over 100 µM, the TGI (DU-145 prostate) was over 100 µM and the TGI (EKVX NSCLC) was over 100 µM. The TGI (HCC-2998 colon) was over 100 µM, the TGI (HCT-116 colon) was over 100 µM and the TGI (HCT-15 colon) was over 100 µM. It also gave a TGI (HOP-62 NSCLC) of over 100 µM, a TGI (HOP-92 NSCLC) of over 100 µM and a TGI (HT29 colon) of over 100 µM. The TGI (IGROV1 ovarian) was over 100 µM, the TGI (K-562 leukemia) was over 100 µM and the TGI (KM12 colon) was over 100 µM. The TGI (LOX IMVI melanoma) was over 100 µM, the TGI (M14 melanoma) was over 100 µM and the TGI (MALME-3M melanoma) was over 100 µM. For the same compound, the TGI (MCF7 breast) was over 100 µM, the TGI (MDA-MB-231 breast) was over 100 µM and the TGI (MDA-MB-435) was over 100 µM. The TGI (MDA-N) was over 100 µM, the TGI (MOLT-4 leukemia) was over 100 µM and the TGI (NCI-H226 lung) was over 100 µM. For the same compound, the TGI (NCI-H23 lung) was over 100 µM, the TGI (NCI-H460 lung) was over 100 µM and the TGI (NCI-H522 lung) was over 100 µM. It also gave a TGI (NCI/ADR-RES ovarian) of over 100 µM, a TGI (OVCAR-3 ovarian) of over 100 µM and a TGI (OVCAR-4 ovarian) of over 100 µM. The TGI (OVCAR-5 ovarian) was over 100 µM, the TGI (OVCAR-8 ovarian) was over 100 µM and the TGI (PC-3 prostate) was over 100 µM. The TGI (RPMI-8226 leukemia) was over 100 µM, the TGI (RXF 393 renal) was over 100 µM and the TGI (SF-295 CNS) was over 100 µM. The TGI (SF-539 CNS) was over 100 µM, the TGI (SK-MEL-2 melanoma) was over 100 µM and the TGI (SK-MEL-28 melanoma) was over 100 µM. For the same compound, the TGI (SK-MEL-5 melanoma) was over 100 µM, the TGI (SK-OV-3 ovarian) was over 100 µM and the TGI (SN12C renal) was over 100 µM. It also gave a TGI (SNB-19 CNS) of over 100 µM, a TGI (SNB-75 CNS) of over 100 µM and a TGI (SW-620 colon) of over 100 µM. The TGI (T-47D breast) was over 100 µM, the TGI (TK-10 renal) was over 100 µM and the TGI (U251 CNS) was over 100 µM. For the same compound, the TGI (UACC-257 melanoma) was over 100 µM, the TGI (UACC-62 melanoma) was over 100 µM and the TGI (UO-31 renal) was over 100 µM.
Work on COc1c(-c2ccccc2)oc2c(CP(=O)(OC)OC)cccc2c1=O yielded a TGI (786-0 renal) of over 100 µM, a TGI (A498 renal) of over 100 µM and a TGI (A549 NSCLC) of over 100 µM. It also gave a TGI (BT-549 breast) of over 100 µM, a TGI (CAKI-1 renal) of 5.11 µM and a TGI (CCRF-CEM leukemia) of over 100 µM. The TGI (COLO 205 colon) was over 100 µM, the TGI (DU-145 prostate) was over 100 µM and the TGI (EKVX NSCLC) was over 100 µM. It also gave a TGI (HCC-2998 colon) of over 100 µM, a TGI (HCT-116 colon) of over 100 µM and a TGI (HOP-62 NSCLC) of over 100 µM. The TGI (IGROV1 ovarian) was over 100 µM, the TGI (K-562 leukemia) was over 100 µM and the TGI (M14 melanoma) was over 100 µM. For the same compound, the TGI (MALME-3M melanoma) was over 100 µM, the TGI (MCF7 breast) was over 100 µM and the TGI (MDA-MB-231 breast) was over 100 µM. The TGI (MDA-MB-435) was over 100 µM, the TGI (MDA-N) was over 100 µM and the TGI (MOLT-4 leukemia) was over 100 µM. It also gave a TGI (NCI-H23 lung) of over 100 µM, a TGI (NCI-H522 lung) of over 100 µM and a TGI (OVCAR-3 ovarian) of over 100 µM. It also gave a TGI (OVCAR-5 ovarian) of over 100 µM, a TGI (PC-3 prostate) of over 100 µM and a TGI (RPMI-8226 leukemia) of 53.8 µM. For the same compound, the TGI (RXF 393 renal) was over 100 µM, the TGI (SF-295 CNS) was over 100 µM and the TGI (SF-539 CNS) was over 100 µM. For the same compound, the TGI (SK-MEL-2 melanoma) was over 100 µM, the TGI (SK-MEL-5 melanoma) was over 100 µM and the TGI (SK-OV-3 ovarian) was over 100 µM. For the same compound, the TGI (SN12C renal) was over 100 µM, the TGI (SR leukemia) was over 100 µM and the TGI (T-47D breast) was over 100 µM. For the same compound, the TGI (TK-10 renal) was over 100 µM, the TGI (U251 CNS) was over 100 µM and the TGI (UACC-257 melanoma) was over 100 µM. The TGI (UACC-62 melanoma) was over 100 µM and the TGI (UO-31 renal) was 41.9 µM.
